In US6004955A, “Cyclic carbamates and isoxazolidines as IIb/IIIa antagonists” (DuPont Pharmaceuticals Company, priority 1998, dated 1999):

Test system: platelet aggregation (using platelet rich plasma (PRP))
Test: Platelet Aggregation Assay (with esterase; ester prodrugs preincubated with porcine liver esterase)
Type: cell-based
Conditions: human platelet rich plasma; preincubated with 100 IU/mL Porcine liver esterase 2 hours at 37° C.; 100 μM Adenosine Diphosphate
Experimental: Platelet Aggregation Assay: Venous blood was obtained from the arm of a healthy human donor who was drug-free and aspirin-free for at least two weeks prior to blood collection. Blood was collected into 10 mL citrated Vacutainer tubes. The blood was centrifuged for 15 minutes at 150×g at room temperature, and platelet-rich plasma (PRP) was removed. The remaining blood was centrifuged for 15 minutes at 1500×g at room temperature, and platelet-poor plasma (PPP) was removed. Samples were assayed on a aggregometer (PAP-4 Platelet Aggregation Profiler), using PPP as the blank (100% transmittance). 200 μL of PRP was added to each micro test tube, and transmittance was set to 0%. 20 μL of various agonists (ADP, collagen, arachidonate, epinephrine, thrombin) were added to each tube, and the aggregation profiles were plotted (% transmittance versus time). The results are expressed as % inhibition of agonist-inducedplatelet aggregation. For the IC50 evaluation, the test compounds were added at various concentrations prior to the activation of the platelets.
Ester prodrugs were preincubated (10^-3 M F.C.) with 100 IU/mL Porcine liver esterase (Sigma Chemical Co., St. Louis, Mo., #E-3128) for 2 hours at 37° C. Aliquots are then diluted in 0.1 M Tris, pH 7.4, to the desired concentrations. Aliquots of 20 μl of the esterase pretreated prodrugs are added to 200 μl of human platelet rich plasma. Samples were placed in platelet profiler (aggregometer) for 8 minutes at 37° C., followed by the addition of 100 μM Adenosine Diphosphate, (Sigma Chemical Co., St. Louis, Mo., #A-6521), to induce platelet aggregation. Platelet aggregation was allowed to proceed for 5 minutes. Percent inhibition is calculated using percent aggregation in the presence of the test compound divided by percent aggregation of control, times 100. This value is subtracted from 100, yielding percent inhibition. Calculation of IC50 is performed on a Texas Instruments TI59 with an IC50 program.
Table A below sets forth the antiplatelet activity of representative compounds of the present invention. The indicated compounds were tested for their ability to inhibit platelet aggregation (using platelet rich plasma (PRP)). The IC50 value (the concentration of antagonist which inhibits platelet aggregation by 50% relative to a control lacking the antagonist) is shown. In Table 5 the IC50 values are expressed as: +++=IC50 of <10 μM (μM=micromolar).

Structure (SMILES): COC(=O)[C@H](CNC(=O)CC1CC(c2ccc(C(=N)N)cc2)N(Cc2ccccc2)C(=O)O1)NS(=O)(=O)c1cccc(C)c1 (stereo partly drawn) [Example 321, Cis-3-[[[4-[4-(aminoiminomethyl)phenyl]tetrahydro-3-benzyl-2-oxo-2H-1,3-oxazin-6-yl]acetyl]amino]-N-[(3-methylphenyl)sulfonyl]-L-alanine methyl ester monotrifluoroacetic acid]
- IC50: < 10 µM

Structure (SMILES): CCCCOC(=O)N[C@@H](CNC(=O)CC1CC(c2ccc(C(=N)N)cc2)N(C)O1)C(=O)OC (stereo partly drawn) [Example 68, Cis-3-[2-[2-methyl-3-[4-(aminoiminomethyl)phenyl]-isoxazolidin-5-yl]acetyl]amino-N-n-butyloxycarbonyl-L-alanine methyl ester monotrifluoroacetic acid]
- IC50: < 10 µM

Structure (SMILES): COC(=O)[C@H](CNC(=O)CC1CC(c2ccc(C(=N)N)cc2)N(c2ccccc2)O1)NS(=O)(=O)c1cccc(C)c1 (stereo partly drawn) [Example 70, Cis-3-[2-[2-phenyl-3-[4-(aminoiminomethyl)phenyl]-isoxazolidin-5-yl]acetyl]amino-N-(3-methylphenylsulfonyl)-L-alanine methyl ester monotrifluoroacetic acid]
- IC50: < 10 µM

Structure (SMILES): COC(=O)[C@H](CNC(=O)CC1CC(c2ccc(C(=N)N)cc2)N(C)C(=O)O1)NS(=O)(=O)c1ccccc1C (stereo partly drawn) [Example 327, Cis-3-[[[4-[4-(aminoiminomethyl)phenyl]tetrahydro-3-methyl-2-oxo-2H-1,3-oxazin-6-yl]acetyl]amino]-N-[(2-methylphenyl)sulfonyl]-L-alanine methyl ester monotrifluoroacetic acid]
- IC50: < 10 µM

Structure (SMILES): COC(=O)[C@H](CNC(=O)CC1CC(c2ccc(C(=N)N)cc2)N(C)C(=O)O1)NS(=O)(=O)c1cccc(C)c1 (stereo partly drawn) [Example 300, Cis-3-[[[4-[4-(aminoiminomethyl)phenyl]tetrahydro-3-methyl-2-oxo-2H-1,3-oxazin-6-yl]acetyl]amino]-N-[(3-methylphenyl)sulfonyl]-L-alanine methyl ester monotrifluoroacetic acid]
- IC50: < 10 µM

Structure (SMILES): COC(=O)[C@H](CNC(=O)CC1CC(c2ccc(C(=N)N)cc2)N(C)O1)NS(=O)(=O)c1ccccc1C (stereo partly drawn) [Example 32, Cis-3-[2-[2-methyl-3-[4-(aminoiminomethyl)phenyl]-isoxazolidin-5-yl]acetyl]amino-N-(2-methylphenylsulfonyl)-L-alanine methyl ester monotrifluoroacetic acid]
- IC50: < 10 µM

Structure (SMILES): COC(=O)[C@H](CNC(=O)CC1CC(c2ccc(C(=N)N)cc2)N(C)C(=O)O1)NS(=O)(=O)c1c(C)noc1C (stereo partly drawn) [Example 335, Cis-3-[[[4-[4-(aminoiminomethyl)phenyl]tetrahydro-3-methyl-2-oxo-2H-1,3-oxazin-6-yl]acetyl]amino]-N-[(3,5dimethylisoxazol-4-yl)sulfonyl]-L-alanine methyl ester monotrifluoroacetic acid]
- IC50: < 10 µM

Structure (SMILES): COC(=O)[C@H](CNC(=O)CC1CC(c2ccc(C(=N)N)cc2)N(C)O1)NS(=O)(=O)c1cccc(C)c1 (stereo partly drawn) [Example 3, Trans-3-[2-[2-methyl-3-[4-(aminoiminomethyl)phenyl]-isoxazolidin-5-yl]acetyl]amino-N-(3-methylphenylsulfonyl)-L-alanine methyl ester monotrifluoroacetic acid]
- IC50: < 10 µM

Structure (SMILES): COC(=O)[C@H](CNC(=O)CC1CC(c2ccc(C(=N)N)cc2)N(C(C)C)O1)NS(=O)(=O)c1cccc(C)c1 (stereo partly drawn) [Example 28, Cis-3-[2-[2-isopropyl-3-[4-(aminoiminomethyl)phenyl]-isoxazolidin-5-yl]acetyl]amino-N-(3-methylphenylsulfonyl)-L-alanine methyl ester monotrifluoroacetic acid]
- IC50: < 10 µM

Structure (SMILES): COC(=O)[C@H](CNC(=O)C[C@@H]1C[C@H](c2ccc(C(=N)N)cc2)N(C)O1)NS(=O)(=O)c1c(C)noc1C (relative stereo) [Example 37, Cis-3-[2-[2-methyl-3-[4-(aminoiminomethyl)phenyl]-isoxazolidin-5-yl]acetyl]amino-N-(3,5-dimethyloxazol-4-ylsulfonyl)-L-alanine methyl ester monotrifluoroacetic]
- IC50: < 10 µM
